{
  "source": "patent US20190307821A1",
  "about": "“METHODS AND COMPOSITIONS FOR CANCER THERAPY” (priority 2016, published 2019)",
  "key": {"[1]": {"tested_on": "parental and drug-resistant ID8 cells", "type": "cell-based, murine", "conditions": "72-h cell viability assay, ID8-R versus parental cells"}, "ID8-R tumor cells": {"tested_on": "ID8-R tumor cells", "type": "cell-based, murine", "conditions": "24 h cultures, OVV MOI of 1 or DOX 1 μM alone"}, "[2]": {"tested_on": "parental and drug-resistant CAOV2 cells", "type": "cell-based, human", "conditions": "72-h cell viability assay, CAOV2-R versus parental"}, "[3]": {"tested_on": "OVV-EGFP in ID8-R tumor cells", "type": "cell-based, vaccinia virus"}, "[4]": {"tested_on": "OVV-EGFP in CAOV2-R tumor cells", "type": "cell-based, vaccinia virus"}, "CAOV2-R cells": {"tested_on": "CAOV2-R cells", "assay": "Growth in the presence of DOX (trypan blue exclusion test)", "type": "cell-based, human", "conditions": "DOX 3 μM, after a one-week period", "procedure": "(§1) FIG. 9. Susceptibility of parental and resistant ID8 and CAOV2 tumor cells to PTX, CBDCA and DOX. (a) Characterization of side population (SP) in the parental (P) and drug-resistant (R) ID8 (left panel) and CAOV2 (right panel) tumor cells by Hoechst 33342 dye staining. One representative experiment of two independent experiments performed in duplicates is shown. Growth of the parental and drug-resistant tumor variants of ID8 (b) and CAOV2 (c) cells in the presence of PTX (59 nM) and CBDCA (2.6 μM) (left panel) or DOX (3 μM) (right panel) was determined by a trypan blue exclusion test for cell viability. Bars represent the mean±SD of two independent experiments using triplicate samples."}, "ID8-R cells": {"tested_on": "ID8-R cells", "assay": "Growth in the presence of DOX (trypan blue exclusion test)", "type": "cell-based, murine", "conditions": "DOX 3 μM, after a one-week period", "procedure": "as §1"}},
  "data": [
    {"smiles": "COc1cccc2c1C(=O)c1c(O)c3c(c(O)c1C2=O)C[C@@](O)(C(=O)CO)C[C@@H]3O[C@H]1C[C@H](N)[C@H](O)[C@H](C)O1", "note": "[DOX, doxorubicin]", "values": [
      {"measurement": "IC50 values higher compared to the parental cells", "setting": "[1]", "value": "approximately 10 fold"},
      {"measurement": "cells with apoptosis or necrosis", "setting": "ID8-R tumor cells", "value": "~20", "unit": "%"},
      {"measurement": "differences in the IC50 values between the resistant and parental cells", "setting": "[2]", "value": 3, "unit": "fold"},
      {"measurement": "decrease in viral titers", "setting": "[3]", "value": 10, "unit": "fold"},
      {"measurement": "decrease in viral titers", "setting": "[4]", "value": 3, "unit": "fold"},
      {"measurement": "dead cells", "setting": "CAOV2-R cells", "value": "over 90%"},
      {"measurement": "dead cells", "setting": "ID8-R cells", "value": "over 90%"}
    ]}
  ]
}
